Assay results from patent US20140228349A1, “5,7-SUBSTITUTED-IMIDAZO[1,2-C]PYRIMIDINES” (Array BioPharma Inc., priority 2011, published 2014).

Tests used:
Format in all cases: biochemical
Human Tyk2 kinase domain = target: T1, Human Tyk2 kinase domain (Homo sapiens, UniProt P29597); experiment: Tyk2 Inhibition Assay (Omnia kinase fluorescence peptide substrate); conditions: averaged IC50 ranges; 10 μM (Km app) or 1 mM ATP, 2 nM Tyk2
T1 construct: comprising amino acids 886 to 1187; His10 (10 histidine residues) (C, cleaved yes); made in house
T1 sequence (P29597 886-1187): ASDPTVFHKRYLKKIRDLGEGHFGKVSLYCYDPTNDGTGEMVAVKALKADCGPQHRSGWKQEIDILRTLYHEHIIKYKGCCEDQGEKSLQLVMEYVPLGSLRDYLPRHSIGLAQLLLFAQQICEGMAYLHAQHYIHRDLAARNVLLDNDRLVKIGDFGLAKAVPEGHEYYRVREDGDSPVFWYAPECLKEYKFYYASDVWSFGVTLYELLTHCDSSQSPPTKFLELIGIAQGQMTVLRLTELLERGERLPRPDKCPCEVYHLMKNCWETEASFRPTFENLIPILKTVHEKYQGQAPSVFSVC
In short: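 Phosphorylation of 8 μM Omnia Y12 peptide followed kinetically by Sox fluorescence, ex 360/em 485 nm, every 50 s for 45 min. Enzyme: 2 nM Tyk2 kinase domain (aa 886–1187, His tag removed); ATP at 10 μM (Km app) or 1 mM; buffer HEPES pH 7.4 with MgCl2, Triton X-100, DTT. 10-point curves up to 10 μM, IC50 from 4-parameter logistic fit.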

JAK2 = target: T2, JAK2 (Homo sapiens, UniProt O60674); experiment: JAK2 Inhibition Assay (Omnia kinase fluorescence peptide substrate); conditions: averaged IC50 ranges; 25 μM (Km app) or 1 mM ATP, 5 nM JAK2
T2 construct: purchased Invitrogen Corporation, Carlsbad, Calif; IVGN PV4288
T2 sequence (O60674 whole entry): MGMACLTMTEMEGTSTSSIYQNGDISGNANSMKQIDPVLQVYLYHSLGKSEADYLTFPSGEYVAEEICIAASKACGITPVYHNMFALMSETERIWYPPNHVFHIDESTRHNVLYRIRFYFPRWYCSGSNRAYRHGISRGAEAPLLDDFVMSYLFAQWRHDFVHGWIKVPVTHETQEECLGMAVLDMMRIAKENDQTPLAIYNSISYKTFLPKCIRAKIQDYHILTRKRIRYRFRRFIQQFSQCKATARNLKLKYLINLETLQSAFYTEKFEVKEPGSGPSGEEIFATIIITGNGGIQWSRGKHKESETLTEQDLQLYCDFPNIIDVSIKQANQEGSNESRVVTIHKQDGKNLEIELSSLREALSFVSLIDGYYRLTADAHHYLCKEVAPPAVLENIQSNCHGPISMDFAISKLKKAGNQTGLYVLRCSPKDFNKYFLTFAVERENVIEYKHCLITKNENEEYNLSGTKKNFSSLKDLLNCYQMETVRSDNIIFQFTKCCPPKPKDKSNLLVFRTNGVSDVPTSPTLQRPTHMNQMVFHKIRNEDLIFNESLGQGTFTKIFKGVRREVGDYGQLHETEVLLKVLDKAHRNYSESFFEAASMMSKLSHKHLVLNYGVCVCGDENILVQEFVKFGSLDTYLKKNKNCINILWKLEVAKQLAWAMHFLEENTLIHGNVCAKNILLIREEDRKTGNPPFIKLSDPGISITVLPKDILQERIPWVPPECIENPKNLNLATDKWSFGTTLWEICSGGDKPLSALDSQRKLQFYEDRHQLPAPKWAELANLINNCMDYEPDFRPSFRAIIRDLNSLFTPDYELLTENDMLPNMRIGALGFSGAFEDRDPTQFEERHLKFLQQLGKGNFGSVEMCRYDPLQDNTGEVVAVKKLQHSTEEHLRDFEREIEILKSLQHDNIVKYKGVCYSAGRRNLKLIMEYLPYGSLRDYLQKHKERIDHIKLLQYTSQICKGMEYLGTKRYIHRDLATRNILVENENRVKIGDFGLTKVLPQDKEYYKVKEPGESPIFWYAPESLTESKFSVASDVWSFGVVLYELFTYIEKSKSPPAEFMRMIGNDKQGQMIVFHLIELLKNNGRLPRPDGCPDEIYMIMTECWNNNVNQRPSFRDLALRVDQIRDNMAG

JAK1 = target: T3, JAK1 (Homo sapiens, UniProt P23458); experiment: JAK1 Inhibition Assay (Omnia kinase fluorescence peptide substrate); conditions: averaged IC50 ranges; 40 μM (Km app) or 1 mM ATP, 15 nM JAK1
T3 construct: purchased Invitrogen Corporation, Carlsbad, Calif; IVGN PV4775
T3 sequence (P23458 whole entry): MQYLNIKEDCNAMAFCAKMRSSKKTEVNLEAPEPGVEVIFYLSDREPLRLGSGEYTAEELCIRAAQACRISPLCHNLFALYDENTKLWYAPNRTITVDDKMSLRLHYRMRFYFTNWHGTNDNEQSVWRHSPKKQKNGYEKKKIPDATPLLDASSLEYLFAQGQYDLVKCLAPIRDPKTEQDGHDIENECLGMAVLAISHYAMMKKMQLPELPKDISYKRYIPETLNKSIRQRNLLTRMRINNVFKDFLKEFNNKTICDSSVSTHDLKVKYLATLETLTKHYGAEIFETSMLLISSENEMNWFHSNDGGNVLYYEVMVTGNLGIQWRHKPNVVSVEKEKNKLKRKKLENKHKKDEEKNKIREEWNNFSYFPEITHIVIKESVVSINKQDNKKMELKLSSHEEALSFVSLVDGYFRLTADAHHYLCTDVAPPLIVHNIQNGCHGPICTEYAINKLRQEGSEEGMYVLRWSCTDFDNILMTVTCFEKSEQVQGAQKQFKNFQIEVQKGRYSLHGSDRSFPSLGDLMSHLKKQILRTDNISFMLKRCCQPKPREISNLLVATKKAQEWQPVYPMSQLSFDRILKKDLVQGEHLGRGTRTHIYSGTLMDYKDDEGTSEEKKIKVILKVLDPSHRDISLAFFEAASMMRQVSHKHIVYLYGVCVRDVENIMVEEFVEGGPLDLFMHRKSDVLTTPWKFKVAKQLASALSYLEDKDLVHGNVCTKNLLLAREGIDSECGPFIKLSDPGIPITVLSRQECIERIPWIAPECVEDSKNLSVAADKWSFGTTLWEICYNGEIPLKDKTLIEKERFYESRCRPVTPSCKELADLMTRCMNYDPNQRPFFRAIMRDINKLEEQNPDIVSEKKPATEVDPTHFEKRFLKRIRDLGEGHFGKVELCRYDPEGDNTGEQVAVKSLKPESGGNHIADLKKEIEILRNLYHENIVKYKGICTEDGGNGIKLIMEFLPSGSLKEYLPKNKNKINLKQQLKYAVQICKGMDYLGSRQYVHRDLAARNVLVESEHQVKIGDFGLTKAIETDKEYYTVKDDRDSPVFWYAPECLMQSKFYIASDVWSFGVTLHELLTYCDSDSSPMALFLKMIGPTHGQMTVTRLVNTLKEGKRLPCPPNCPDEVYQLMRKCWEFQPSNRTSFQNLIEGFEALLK
In short: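 15 nM JAK1, 8 μM Omnia Y12 peptide, 40 μM (Km app) or 1 mM ATP; 25 mM HEPES pH 7.4, 10 mM MgCl2, 2% DMSO. Fluorescence (ex 360/em 485 nm) read every 50 s over 45 min. IC50 by 4-parameter fit of percent of control, top dose 10 μM.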

JAK3 = target: T4, JAK3 (Homo sapiens, UniProt P52333); experiment: JAK3 Inhibition Assay (Omnia kinase fluorescence peptide substrate); conditions: averaged IC50 ranges; 10 μM (Km app) or 1 mM ATP, 2.5 nM JAK3
T4 construct: purchased Invitrogen Corporation, Carlsbad, Calif; IVGN PV4080
T4 sequence (P52333 1-1124): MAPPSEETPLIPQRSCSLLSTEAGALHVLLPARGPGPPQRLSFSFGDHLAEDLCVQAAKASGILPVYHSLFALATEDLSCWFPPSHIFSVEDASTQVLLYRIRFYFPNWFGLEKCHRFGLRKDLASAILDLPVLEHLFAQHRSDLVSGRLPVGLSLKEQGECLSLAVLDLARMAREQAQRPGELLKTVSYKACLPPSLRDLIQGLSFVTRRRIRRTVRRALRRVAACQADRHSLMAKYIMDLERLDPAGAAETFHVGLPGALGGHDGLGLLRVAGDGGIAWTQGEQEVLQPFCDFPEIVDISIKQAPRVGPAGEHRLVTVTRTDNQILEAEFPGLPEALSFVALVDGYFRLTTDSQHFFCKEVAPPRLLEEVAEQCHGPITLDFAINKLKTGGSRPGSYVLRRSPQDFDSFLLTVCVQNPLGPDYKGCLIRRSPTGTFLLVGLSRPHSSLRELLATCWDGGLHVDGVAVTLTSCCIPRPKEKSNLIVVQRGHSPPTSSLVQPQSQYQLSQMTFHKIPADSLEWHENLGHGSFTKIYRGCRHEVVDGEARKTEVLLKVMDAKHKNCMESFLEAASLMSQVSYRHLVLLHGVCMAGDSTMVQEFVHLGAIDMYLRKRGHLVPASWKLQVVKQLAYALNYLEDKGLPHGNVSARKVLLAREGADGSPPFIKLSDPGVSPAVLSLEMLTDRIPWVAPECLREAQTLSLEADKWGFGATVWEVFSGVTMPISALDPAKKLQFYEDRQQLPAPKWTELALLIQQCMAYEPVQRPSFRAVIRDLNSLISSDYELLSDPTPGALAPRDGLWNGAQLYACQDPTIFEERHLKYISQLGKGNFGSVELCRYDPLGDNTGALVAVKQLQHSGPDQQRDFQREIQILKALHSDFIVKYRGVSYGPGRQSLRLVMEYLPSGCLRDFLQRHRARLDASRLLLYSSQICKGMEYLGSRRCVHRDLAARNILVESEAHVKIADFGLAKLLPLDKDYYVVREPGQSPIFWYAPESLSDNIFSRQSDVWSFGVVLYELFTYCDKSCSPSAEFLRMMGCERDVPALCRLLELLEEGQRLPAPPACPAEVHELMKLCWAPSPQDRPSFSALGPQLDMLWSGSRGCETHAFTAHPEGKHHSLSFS
In short: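 IC50 is the concentration giving 50 percent of control on a 4-parameter logistic fit of 10-point, 3-fold dilutions from a 10 μM top dose, at 2% final DMSO. Kinetic Sox fluorescence (360/485 nm) was monitored every 50 s for 45 min. Mix: JAK3 2.5 nM, Omnia Y7 peptide 10 μM, ATP 10 μM (Km app) or 1 mM, in HEPES pH 7.4 buffer with MgCl2, Triton X-100 and DTT.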

Row | SMILES | IC50 (Human Tyk2 kinase domain) | IC50 (JAK2) | IC50 (JAK1) | IC50 (JAK3)
1 | CC=C[C@@H](C1CC1)n1cc(-c2nc(-c3cnn(C)c3)cc3nccn23)cn1 [Example 39, (R)-5-(1-(1-cyclopropylbut-2-en-1-yl)-1H-pyrazol-4-yl)-7-(1-methyl-1H-pyrazol-4-yl)imidazo[1,2-c]pyrimidine] | 0.01 to 0.1 µM | 0.1 to 1 µM | 0.1 to 1 µM | 0.1 to 1 µM
2 | Cn1cc(-c2cc3nccn3c(-c3cnn(C(C/C=C\F)C4CC4)c3)n2)cn1 (stereo not drawn) [Example 44, (Z)-5-(1-(1-cyclopropyl-4-fluorobut-3-en-1-yl)-1H-pyrazol-4-yl)-7-(1-methyl-1H-pyrazol-4-yl)imidazo[1,2-c]pyrimidine] | 0.01 to 0.1 µM | 0.01 to 0.1 µM | 0.1 to 1 µM | 0.1 to 1 µM
3 | Cn1cc(-c2cc3nccn3c(-c3cnn(C4(CCF)CN(S(=O)(=O)NC5CC5)C4)c3)n2)cn1 [Example 46, N-cyclopropyl-3-(2-fluoroethyl)-3-(4-(7-(1-methyl-1H-pyrazol-4-yl)imidazo[l,2-c]pyrimidin-5-yl)-1H-pyrazol-1-yl)azetidine-1-sulfonamide] | 0.1 to 1 µM | 0.1 to 1 µM | 0.1 to 1 µM | > 1 µM
4 | Cn1cc(-c2cc3nccn3c(-c3cnn([C@H](CC=C(F)F)C4CC4)c3)n2)cn1 [Example 49, (R)-5-(1-(1-cyclopropyl-4,4-difluorobut-3-en-1-yl)-1H-pyrazol-4-yl)-7-(1-methyl-1H-pyrazol-4-yl)imidazo[1,2-c]pyrimidine] | < 0.01 µM | 0.01 to 0.1 µM | 0.01 to 0.1 µM | 0.01 to 0.1 µM
5 | Cn1cc(-c2cc3nccn3c(-c3cnn([C@@H](CC=C(F)F)C4CC4)c3)n2)cn1 [Example 50, (S)-5-(1-(1-cyclopropyl-4,4-difluorobut-3-en-1-yl)-1H-pyrazol-4-yl)-7-(1-methyl-1H-pyrazol-4-yl)imidazo[1,2-c]pyrimidine] | < 0.01 µM | < 0.01 µM | 0.01 to 0.1 µM | 0.01 to 0.1 µM
6 | Cn1cc(-c2cc3nccn3c(-c3cnn(C4(CCF)CN(S(=O)(=O)C(F)F)C4)c3)n2)cn1 [Example 51] | < 0.01 µM | 0.01 to 0.1 µM | 0.01 to 0.1 µM | 0.01 to 0.1 µM
7 | Cn1cc(-c2cc3nccn3c(-c3cnn(C4(CCF)CCC4)c3)n2)cn1 [Example 52, 5-(1-(1-(2-fluoroethyl)cyclobutyl)-1H-pyrazol-4-yl)-7-(1-methyl-1H-pyrazol-4-yl)imidazo[1,2-c]pyrimidine] | 0.01 to 0.1 µM | 0.1 to 1 µM | 0.1 to 1 µM | 0.1 to 1 µM
8 | COCCC1(n2cc(-c3nc(-c4cnn(C)c4)cc4nccn34)cn2)CCC1 [Example 53, 5-(1-(1-(2-methoxyethyl)cyclobutyl)-1H-pyrazol-4-yl)-7-(1-methyl-1H-pyrazol-4-yl)imidazo[1,2-c]pyrimidine] | 0.1 to 1 µM | 0.1 to 1 µM | > 1 µM | 0.1 to 1 µM
9 | Cn1cc(-c2cc3nccn3c(-c3cnn(C(CC=C(F)F)C4CC4)c3)n2)cn1 (stereo not drawn) [Example 54, 5-(1-(1-cyclopropyl-4,4-difluorobut-3-en-1-yl)-1H-pyrazol-4-yl)-7-(1-methyl-1H-pyrazol-4-yl)imidazo[1,2-c]pyrimidine] | < 0.01 µM | 0.01 to 0.1 µM | 0.01 to 0.1 µM | 0.01 to 0.1 µM
10 | Cn1cc(-c2cc3nccn3c(-c3cnn(C4(CCO)CCC4)c3)n2)cn1 [Example 56, 2-(1-(4-(7-(1-methyl-1H-pyrazol-4-yl)imidazo[1,2-c]pyrimidin-5-yl)-1H-pyrazol-1-yl)cyclobutyl)ethanol] | 0.1 to 1 µM | > 1 µM | > 1 µM | > 1 µM

More lines, now with the values ahead:

Row | IC50 (Human Tyk2 kinase domain) | IC50 (JAK2) | IC50 (JAK1) | IC50 (JAK3) | SMILES
11 | 0.1 to 1 µM | 0.1 to 1 µM | > 1 µM | > 1 µM | C[C@@H](O)C[C@H](C1CC1)n1cc(-c2nc(-c3cnn(C)c3)cc3nccn23)cn1 [Example 40, (2R,4R)-4-cyclopropyl-4-(4-(7-(1-methyl-1H-pyrazol-4-yl)imidazo[1,2-c]pyrimidin-5-yl)-1H-pyrazol-1-yl)butan-2-ol]
12 | 0.1 to 1 µM | 0.1 to 1 µM | > 1 µM | > 1 µM | C[C@H](O)C[C@@H](C1CC1)n1cc(-c2nc(-c3cnn(C)c3)cc3nccn23)cn1 [Example 41, (2S,4S)-4-cyclopropyl-4-(4-(7-(1-methyl-1H-pyrazol-4-yl)imidazo[1,2-c]pyrimidin-5-yl)-1H-pyrazol-1-yl)butan-2-ol]
13 | < 0.01 µM | 0.01 to 0.1 µM | 0.1 to 1 µM | 0.1 to 1 µM | CC[C@H](CCF)n1cc(-c2nc(-c3cnn(C)c3)cc3nccn23)cn1 [Example 42, (R)-5-(1-(1-fluoropentan-3-yl)-1H-pyrazol-4-yl)-7-(1-methyl-1H-pyrazol-4-yl)imidazo[1,2-c]pyrimidine]
14 | 0.01 to 0.1 µM | 0.01 to 0.1 µM | 0.1 to 1 µM | 0.1 to 1 µM | CC[C@@H](CCF)n1cc(-c2nc(-c3cnn(C)c3)cc3nccn23)cn1 [Example 43, (S)-5-(1-(1-fluoropentan-3-yl)-1H-pyrazol-4-yl)-7-(1-methyl-1H-pyrazol-4-yl)imidazo[1,2-c]pyrimidine]
15 | 0.1 to 1 µM | 0.1 to 1 µM | > 1 µM | > 1 µM | CC#CCC(C1CC1)n1cc(-c2nc(-c3cnn(C)c3)cc3nccn23)cn1 (stereo not drawn) [Example 45, 5-(1-(1-cyclopropylpent-3-yn-1-yl)-1H-pyrazol-4-yl)-7-(1-methyl-1H-pyrazol-4-yl)imidazo[1,2-c]pyrimidine]
16 | 0.01 to 0.1 µM | 0.01 to 0.1 µM | 0.1 to 1 µM | 0.1 to 1 µM | Cn1cc(-c2cc3nccn3c(-c3cnn(C(CCC(F)F)C4CC4)c3)n2)cn1 (stereo not drawn) [Example 47, 5-(1-(1-cyclopropyl-4,4-difluorobutyl)-1H-pyrazol-4-yl)-7-(1-methyl-1H-pyrazol-4-yl)imidazo[1,2-c]pyrimidine]
17 | < 0.01 µM | 0.01 to 0.1 µM | 0.1 to 1 µM | 0.1 to 1 µM | C#CCC(C1CC1)n1cc(-c2nc(-c3cnn(C)c3)cc3nccn23)cn1 (stereo not drawn) [Example 55, 5-(1-(1-cyclopropylbut-3-yn-1-yl)-1H-pyrazol-4-yl)-7-(1-methyl-1H-pyrazol-4-yl)imidazo[1,2-c]pyrimidine]
18 | 0.01 to 0.1 µM | 0.1 to 1 µM | 0.1 to 1 µM | 0.1 to 1 µM | CCC(CCF)n1cc(-c2nc(-c3cnn(C)c3)cc3nccn23)cn1 (stereo not drawn) [Example 57, 5-(1-(1-fluoropentan-3-yl)-1H-pyrazol-4-yl)-7-(1-methyl-1H-pyrazol-4-yl)imidazo[1,2-c]pyrimidine]
